*1 amine or outer side, *2 acyl side, *3 side chain or, on linkers, in order; H or OH if unused. Where a SMILES comes first, the peptide text is derived from it. Bridges are numbered along the chain shown (N, C = ends). [ ]: non-standard residue; d: D form. X1 = O=C(O)CCCCCCCCCCCCCCCCCCC(=O)N[C@@H](CCCCNC(=O)COCCOCCNC(=O)COCCOCCNC(=O)CCC(=O)N(CCNC(=O)C[*:1])CCNC(=O)C[*:2])C(=O)O; Phe(2-F) = N[C@@H](Cc1ccccc1F)C(=O)O; αMeL = CC(C)C[C@](C)(N)C(=O)O; Aib = CC(C)(N)C(=O)O
Tests used:
Assay type in all cases: cell-based
GLP-1R = target: T1, GLP-1R (Homo sapiens, UniProt P43220); experiment: CreLuc method (CRE-luciferase reporter), HEK293/pGM-CREB-L-Luc/GLP-1R pool; conditions: 6 h incubation, read-out: EC50 (pM) for each receptor GLP-1R
T1 construct: expressed in transfected cells
T1 sequence (P43220 24-463, species assumed): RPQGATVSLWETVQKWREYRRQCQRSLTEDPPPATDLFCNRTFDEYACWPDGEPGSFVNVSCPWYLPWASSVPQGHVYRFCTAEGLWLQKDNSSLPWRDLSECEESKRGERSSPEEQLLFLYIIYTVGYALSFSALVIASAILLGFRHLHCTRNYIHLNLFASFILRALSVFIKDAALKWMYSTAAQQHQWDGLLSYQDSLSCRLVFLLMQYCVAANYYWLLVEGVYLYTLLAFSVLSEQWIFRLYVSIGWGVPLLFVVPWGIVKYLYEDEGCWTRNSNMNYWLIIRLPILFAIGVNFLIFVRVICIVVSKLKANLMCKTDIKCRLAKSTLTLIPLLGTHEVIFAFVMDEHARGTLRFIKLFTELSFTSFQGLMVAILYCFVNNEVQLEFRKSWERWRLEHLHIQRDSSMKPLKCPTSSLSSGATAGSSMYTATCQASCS
Method in brief: (§1)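 Stable HEK293 pools co-expressing each receptor with a CRE-luciferase reporter were plated at 20,000 cells/well in freestyle medium and treated with compound dilution series for 6 h at 37 °C. Luminescence was read with ONE-GLO to derive EC50.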

GIPR [1] = target: T2, GIPR (Homo sapiens, UniProt P48546); experiment: CreLuc method (CRE-luciferase reporter), HEK293/pGM-CREB-L-Luc/GIPR pool; conditions: 6 h incubation, read-out: EC50 (pM) for each receptor GIPR
T2 construct: expressed in transfected cells
T2 sequence (P48546 22-466): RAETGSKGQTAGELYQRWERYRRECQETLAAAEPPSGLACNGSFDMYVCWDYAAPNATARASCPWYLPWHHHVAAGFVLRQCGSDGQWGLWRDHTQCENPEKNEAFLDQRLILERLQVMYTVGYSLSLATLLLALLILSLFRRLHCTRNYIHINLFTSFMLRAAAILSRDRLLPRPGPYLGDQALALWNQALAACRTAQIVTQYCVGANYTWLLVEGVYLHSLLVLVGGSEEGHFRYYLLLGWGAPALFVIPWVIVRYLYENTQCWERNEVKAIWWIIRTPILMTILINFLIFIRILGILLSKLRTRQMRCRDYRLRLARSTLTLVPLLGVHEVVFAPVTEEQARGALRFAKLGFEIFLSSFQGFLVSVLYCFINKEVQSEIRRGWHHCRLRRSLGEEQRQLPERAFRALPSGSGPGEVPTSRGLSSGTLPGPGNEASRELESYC
Method in brief: as §1

GCGR [2] = target: T3, GCGR (Homo sapiens, UniProt P47871); experiment: CreLuc method (CRE-luciferase reporter), 293HEK/pGM-CREB-L-Luc/GCGR pool; conditions: 6 h incubation, read-out: EC50 (pM) for each receptor GCGR
T3 construct: expressed in transfected cells
T3 sequence (P47871 26-477, species assumed): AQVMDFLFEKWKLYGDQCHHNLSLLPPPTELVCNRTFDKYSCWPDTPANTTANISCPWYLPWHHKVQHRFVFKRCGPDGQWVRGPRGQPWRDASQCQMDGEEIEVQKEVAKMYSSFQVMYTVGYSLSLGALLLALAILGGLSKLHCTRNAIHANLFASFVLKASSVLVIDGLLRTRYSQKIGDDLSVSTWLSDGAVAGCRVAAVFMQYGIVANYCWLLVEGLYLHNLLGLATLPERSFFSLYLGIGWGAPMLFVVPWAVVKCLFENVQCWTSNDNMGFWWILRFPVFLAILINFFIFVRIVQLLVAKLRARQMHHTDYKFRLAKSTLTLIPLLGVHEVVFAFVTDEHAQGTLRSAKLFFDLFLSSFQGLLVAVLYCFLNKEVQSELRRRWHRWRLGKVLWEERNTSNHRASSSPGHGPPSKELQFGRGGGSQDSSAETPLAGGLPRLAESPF
Method in brief: as §1

GIPR [3] = target: T2, GIPR; experiment: cAMP method (HTRF cAMP detection kit), HEK293/pGM-CREB-L-Luc/GIP pool; conditions: read-out: EC50 (pM) for each receptor GIPR
Protocol: (§2) 2. Insulinotropic analogues can bind to target receptors on the cell membrane, activate the receptors, and induce release. The activity of the test substance can be determined using the HTRF method with a cAMP detection kit. Therefore, the cAMP method can be used to detect the target peptide derivatives (or polypeptide derivatives, i.e., TG1-TG86) prepared in Example 1 and Example 2. […] The test cell line was selected, treated with cAMP-specific trypsin for digestion. 3 mL of serum-free DMEM culture medium was added, and the cells were pipetted, resuspended, and counted. 5 µL of IBMX (prepared with serum-free DMEM medium, 0.5 mM) and test cells (5 µL/7500 cells/well) were added in a 384-well plate sequentially. The plate was incubated at 37°C under 5% CO2 for 30 min, followed by the addition of cAMP-d2 (5 µL, 1x) and Anti-cAMP-Cryptate (5 µL, 1x). The mixture was kept at room temperature for 1 h, after which the HTRF value was measured using a chemiluminescent microplate reader, and the determination result was recorded. […] Table 4: EC50 values for target peptide derivatives

GCGR [4] = target: T3, GCGR; experiment: cAMP method (HTRF cAMP detection kit), HEK293/pGM-CREB-L-Luc/GCG pool; conditions: read-out: EC50 (pM) for each receptor GCGR
Protocol: as §2

SMILES	EC50 (GLP-1R) [pM]	EC50 (GIPR [1]) [pM]	EC50 (GCGR [2]) [pM]	EC50 (GIPR [3]) [pM]	EC50 (GCGR [4]) [pM]
CC[C@H](C)[C@H](NC(=O)[C@H](Cc1ccccc1)NC(=O)[C@H](C)NC(=O)[C@@H]1CSCC(=O)NCCN(C(=O)CCC(=O)NCCOCCOCC(=O)NCCOCCOCC(=O)NCCCC[C@H](NC(=O)CCCCCCCCCCCCCCCCCCC(=O)O)C(=O)O)CCNC(=O)CSC[C@H](NC(=O)[C@H](CCCCN)NC(=O)[C@H](CC(=O)O)NC(=O)[C@H](CC(C)C)NC(=O)[C@](C)(CC(C)C)NC(=O)[C@@H](NC(=O)[C@H](CO)NC(=O)[C@H](Cc2ccc(O)cc2)NC(=O)[C@H](CC(=O)O)NC(=O)[C@H](CO)NC(=O)[C@@H](NC(=O)[C@H](Cc2ccccc2F)NC(=O)[C@@H](NC(=O)CNC(=O)[C@H](CCC(N)=O)NC(=O)C(C)(C)NC(=O)[C@@H](N)Cc2ccc(O)cc2)[C@@H](C)O)[C@@H](C)O)[C@@H](C)CC)C(=O)N[C@@H](C)C(=O)N[C@@H](CCC(N)=O)C(=O)N1)C(=O)N[C@@H](CCC(=O)O)C(=O)N[C@@H](Cc1ccc(O)cc1)C(=O)N[C@@H](CC(C)C)C(=O)N[C@@H](CC(C)C)C(=O)N[C@@H](C)C(=O)NCC(=O)NCC(=O)N1CCC[C@H]1C(=O)N[C@@H](CO)C(=O)N[C@@H](CO)C(=O)NCC(=O)N[C@@H](C)C(=O)N1CCC[C@H]1C(=O)N1CCC[C@H]1C(=O)N1CCC[C@H]1C(=O)N[C@@H](CO)C(N)=O [TG59] (H-Y[Aib]QGT[Phe(2-F)]TSDYSI[αMeL]LDKCAQCAFIEYLLAGGPSSGAPPPS-NH2; linker 17-20 via X1)	51.8	30.7	392	3.9	9.1
CC[C@H](C)[C@@H]1NC(=O)[C@H](Cc2ccccc2)NC(=O)[C@@H](NC(=O)C(C)(C)NC(=O)[C@H](CCC(N)=O)NC(=O)[C@H](C)NC(=O)[C@H](CCCCNC(C)=O)NC(=O)[C@](C)(CCCCN)NC(=O)[C@H](CC(=O)O)NC(=O)[C@H](CC(C)C)NC(=O)[C@](C)(CC(C)C)NC(=O)[C@@H](NC(=O)[C@](C)(CO)NC(=O)[C@H](Cc2ccc(O)cc2)NC(=O)[C@H](CC(=O)O)NC(=O)[C@H](CO)NC(=O)[C@@H](NC(=O)[C@H](Cc2ccccc2F)NC(=O)[C@@H](NC(=O)CNC(=O)[C@H](CCC(N)=O)NC(=O)C(C)(C)NC(=O)[C@@H](N)Cc2ccc(O)cc2)[C@@H](C)O)[C@@H](C)O)[C@@H](C)CC)CSCC(=O)NCCN(C(=O)CCC(=O)NCCOCCOCC(=O)NCCOCCOCC(=O)NCCCC[C@H](NC(=O)CCCCCCCCCCCCCCCCCCC(=O)O)C(=O)O)CCNC(=O)CSC[C@@H](C(=O)NCC(=O)NCC(=O)N2CCC[C@H]2C(=O)N[C@@H](CO)C(=O)N[C@@H](CO)C(=O)NCC(=O)N[C@@H](C)C(=O)N2CCC[C@H]2C(=O)N2CCC[C@H]2C(=O)N2CCC[C@H]2C(=O)N[C@@H](CO)C(N)=O)NC(=O)[C@H](CC(C)C)NC(=O)[C@H](CC(C)C)NC(=O)[C@H](Cc2ccc(O)cc2)NC(=O)[C@H](CCC(=O)O)NC1=O [TG61]	264	12.6	268	5.9	12.4

From patent EP4790066A1, “GLP-1R/GIPR/GCGR TRIPLE AGONIST ANALOGUE AND USE THEREOF” (Shenzhen Bay Laboratory, priority 2023, dated 2025)
